{
  "source": "patent US9504671B2",
  "about": "“Pharmaceutical compositions of spiro-oxindole compound for topical administration and their use as therapeutic agents” (Xenon Pharmaceuticals Inc., priority 2010, dated 2016)",
  "tested_on": "CFA-induced inflammatory pain model",
  "assay": "CFA induced chronic inflammatory pain, von Frey mechanical paw withdrawal threshold",
  "assay_type": "in vivo, rats",
  "settings": "fourth day, 30 minutes post-dosing",
  "description": "In this test, mechanical hyperalgesia is assessed with electronic von Frey filament by means of Electrovonfrey anesthesiometer (Model 2290, IITC Life Science, Woodland Hills, Calif.). Following a full week of acclimatization to the vivarium facility, 150 μL of the “Complete Freund's Adjuvant” (CFA) emulsion (CFA suspended in an oil/saline (1:1) emulsion at a final concentration of 0.5 mg/mL) was injected subcutaneously into the plantar surface of the left hind ankle joint of rats under light isoflurane anaesthesia. Animals were allowed to recover from the anaesthesia and the baseline mechanical nociceptive thresholds of all animals were assessed one week after the administration of CFA. All animals were habituated to the experimental chambers for 20 minutes on the day of the experiment. The animals were then randomly assigned to 5 different test groups including a vehicle control group and 4 pharmaceutical compositions with COMPOUND A at 1%, 2%, 4% and 8% (w/w) groups. After baseline measurements, animals were anaesthetized under isoflurane, shaved at the site of application, and then dosed by application of 50 mg test compositions on the entire ipsilateral hind ankle and foot. Animals were then placed in Plexiglas tubes for 30 minutes to prevent early removal/ingestion of drug. Test compositions were applied twice a day for 3 days. On the fourth day, immediately after application, animals were placed in tubes for 15 minutes and then removed and placed in Plexiglas enclosures for 15 minutes prior to making paw withdrawal measurements. Von Frey withdrawal thresholds were measured as the mean of several independent determinations made within 1-2 minutes of each other on the affected paw of each animal 30 minutes post-dosing. The time point used was previously determined to show the highest analgesic effect for each test composition.\nThe response thresholds of animals to tactile stimuli were measured using the Model 2290 Electrovonfrey anesthesiometer (IITC Life Science, Woodland Hills, Calif.). Animals were placed in an elevated Plexiglas enclosure set on a mire mesh surface. After 15 minutes of accommodation, a von Frey hair was applied perpendicularly to the plantar surface of the ipsilateral hind paws of the animals with sufficient force, measured in grams, to elicit a crisp response of the paw. The response indicated a withdrawal from the painful stimulus and constituted the efficacy endpoint.",
  "data": [
    {"smiles": "O=C1N(Cc2ccc(C(F)(F)F)o2)c2ccccc2[C@]12COc1cc3c(cc12)OCO3", "note": "[COMPOUND A, (S)-1′-{[5-(trifluoromethyl)furan-2-yl]methyl}spiro[furo[2,3-f][1,3]benzodioxole-7,3′-indol]-2′(1′H)-one]", "values": [
      {"measurement": "von Frey mechanical paw withdrawal threshold, percent CFB", "setting": "1% (w/w) topical composition", "result": "did not demonstrate an observable increase"},
      {"measurement": "von Frey mechanical paw withdrawal threshold, percent CFB", "setting": "2% (w/w) topical composition", "result": "statistically significant increases"},
      {"measurement": "von Frey mechanical paw withdrawal threshold, percent CFB", "setting": "4% (w/w) topical composition", "result": "statistically significant increases"},
      {"measurement": "von Frey mechanical paw withdrawal threshold, percent change from baseline (CFB)", "setting": "8% (w/w) topical composition, 50 mg twice a day for 3 days", "result": "+45.1%"},
      {"measurement": "von Frey mechanical paw withdrawal threshold, percent CFB", "setting": "8% (w/w) topical composition", "result": "statistically significant increases"}
    ]}
  ]
}
